We go through one compound from publication PMC11311998, “AR71, Histamine H3 Receptor Ligand—In Vitro and In Vivo Evaluation (Anti-Inflammatory Activity, Metabolic Stability, Toxicity, and Analgesic Action)” (International Journal of Molecular Sciences, 2024).

The target of one assay is human H3R. More on the design: method as in PMID 36370200. The note with it: cited from earlier work.
The subject of the next assay is BV-2 cells. The assay can be described thus: cytokine/chemokine panel in LPS-stimulated microglia (Luminex). The class given is cell-based, mouse. An excerpt:
In the research presented in this paper, we extended the study of the anti-inflammatory properties of AR71 by analysing the panel of cytokines/chemokines in mouse microglia with the Luminex® platform. We applied MILLIPLEX® Magnetic Bead Panel that consists of nine different analytes regarding inflammation. Some of the analytes were below the limit of quantification, and the reason for this is explained in the text.
BV-2 cells (the murine microglial cell line) were purchased from the Interlab Cell Line Collection (ICLC) cell bank (ICLC, Genova, Italy). The cells were cultured in DMEM medium (Gibco no. 61965-026, ThermoFisher Scientific, Waltham, MA, USA) containing 10% charcoal-stripped foetal bovine serum (CS-FBS, Biowest no. S181f, batch no. S00NP) in a humidified incubator containing 95% air and 5% CO2 at 37 °C. CS-FBS was used to study the effect of compounds on neuroinflammation in vitro without the confounding effects of some cytokines that are naturally present in serum. Experiments were carried out with BV-2 cells from passages 7 to 13.
The Luminex assay is a form of immunoassay that utilises magnetic microparticles and the same sandwiching techniques as ELISAs. To analyse the panel of cytokines/chemokines in mouse microglia, we used a MILLIPLEX® Magnetic Bead Panel (MCYTOMAG-70K, Millipore, Sigma-Aldrich, Darmstadt, Germany). The following analytes were studied: IFN-γ, IL-1β, IL-4, IL-6, IL-10, IL-12 (p40), IP-10, MIP-2, and TNF-α. The preparation of antibody-immobilised beads, quality controls, mouse cytokine standard, and immunoassay procedure, were performed according to the manufacturer’s protocol. All standards, quality controls, and samples were analysed in duplicate on the Luminex 200 multiplexing instrument (Luminex Corp, Austin, TX, USA). Sample analyte concentrations were determined using Belysa 1.1.0 curve-fitting software and the standard curve data from each run (Millipore, Sigma-Aldrich, Darmstadt, Germany). To perform multiplex cytokine analysis, BV-2 cells (150 × 10^3 cells/well/500 μL in 24-well plate) were pre-treated for 1 h with AR71, and then LPS (1 μg/mL) was added to induce inflammation. The cells were cultured for another 24 h. After this time, cell culture supernatants were collected, centrifuged to remove cell debris, and stored at −80 °C for analysis. To avoid multiple freeze/thaw cycles, the samples were aliquoted.

The test system of a further assay is CCI-exposed mice. The assay can be described thus: von Frey test in CCI neuropathic pain model. The assay is classed as in vivo, mouse. Here is the method: The effects of a single intraperitoneal (i.p.) injection of AR71 at doses of 5, 10, and 20 mg/kg on mechanical (von Frey test) and thermal (cold plate and tail flick tests) stimulus were evaluated on day 14 following sciatic nerve injury (Figure 15). There were seven to eight animals per group. All these tests were performed in three time series after the administration of the compound. In the case of the von Frey test—after 30, 90, and 180 min; the cold plate test—after 35, 95, and 185 min; and the tail flick test—after 40, 100, and 190 min.
The mice were randomly divided into four experimental groups. One group received a vehicle treatment (10% DMSO/10%(2-Hydroxypropyl)-β-cyclodextrin/water for injection, i.p.), while the other three groups were administered with AR71 at doses of 5, 10, or 20 mg/kg of body weight (b.w.), i.p. Baseline measurements for all tests were conducted before the compounds were injected, and the results are presented as percentages of the maximal possible effect (% MPE). […] All data from behavioural tests were analysed using a one-way ANOVA with Bonferroni’s multiple comparison post hoc test.
The model of chronic constriction injury (CCI) to the sciatic nerve was established according to Bennett and Xie. The surgical method was performed under isoflurate anaesthesia (2% isoflurane in 100% oxygen with a flow of 1.5 L/min). Below the right hipbone, a small incision was performed, and three ligatures (4/0 silk) around the sciatic nerve were made (with 1 mm spacing) until a brief twitch in the respective hind limb was observed. The CCI procedure leads to hypersensitivity to mechanical and thermal stimuli. Behavioural tests were performed on day 14 after the injury. AR71 was dissolved in 10% DMSO/10% (2-Hydroxypropyl)-β-cyclodextrin/water for injection and was given i.p. at doses of 5, 10, and 20 mg/kg of body weight (injection volume 10 mL/kg of bw). The control group received the vehicle (10% DMSO/10% (2-Hydroxypropyl)-β-cyclodextrin/water for injection).
Behavioural experiments were performed between 8:00 a.m. and 2:00 p.m. […]

Where [1] appears, read: 1 h pre-treatment, LPS 1 μg/mL, 24 h.

As a reminder, the Ki is the dissociation constant of the complex between target and ligand, obtained from inhibition or displacement. Regarding `COc1cc(/C=C/C(=O)c2ccc(OCCCN3CCCCC3)cc2)cc(OC)c1OC` [AR71, (E)-3-(3,4,5-trimethoxyphenyl)-1-(4-(3-(piperidin-1-yl)propoxy)phenyl)prop-2-en-1-one], at human H3R, the Ki is 24 nM. In the assay on BV-2 cells (setting [1]), the “reduction of IL-1β vs level after LPS stimulation” value is listed as 2.66 times lower, the “reduction of IL-6 vs level after LPS stimulation” value is 5.94 times lower and the “reduction of TNF-α vs level after LPS stimulation” value is given as 1.77 times lower. Also, the “effect on CXCL-10 (IP-10)” value in the assay on BV-2 cells (in the presence of LPS) is on record as “repressed”. For the same compound, in the assay on BV-2 cells (with LPS), the “IL-4 level in the presence of LPS” value is on record as “did not restore the level of IL-4 to the control point”. In the assay on BV-2 cells (without LPS, vs unstimulated BV-2 cells), the “IL-4 level, compound alone” value is “half the IL-4 content”. The “effect in von Frey test vs vehicle” value in the assay with CCI-exposed mice (10 mg/kg i.p., 30 min after injection, p < 0.05) is on record as “significant pain-relieving effects”. The “effect in von Frey test vs vehicle” value with CCI-exposed mice (20 mg/kg i.p., 90 and 180 min after injection (p < 0.001 and p < 0.01), lower doses not effective) was “increased withdrawal thresholds”. The “effect in von Frey test vs vehicle” value in the assay on CCI-exposed mice (20 mg/kg i.p., 30 min after injection, p < 0.001) is reported as “significant pain-relieving effects”.
